# Experiments:
# hepatic stellate cells = experiment: Induction of fibrogenic genes in cultured hepatic stellate cells; type: cell-based, rat; details: freshly isolated quiescent hepatic stellate cells in culture
# From the text: EZH2 is therefore a negative regulator of PPARγ transcription in myofibroblasts, but also appears to play a wider regulatory role in promoting MTD and wound-healing. Furthermore, the stimulation of EZH2 expression and subsequent methylation of H3K27 in the downstream exons of the PPARγ gene is identified as a second mechanism through which MeCP2 achieves transcriptional silencing of PPARγ. The combined effect of H3K9 methylation and HP1α binding at the 5′ end of the PPARγ gene with H3K27 methylation and PRC1 recruitment in the downstream exons would be to prevent both transcriptional initiation and elongation which reflects the biological importance of suppressing PPARγ expression for MTD and wound-healing. […]
# Total RNA was purified from isolated cells using the Total RNA purification kit (Qiagen, UK) following the manufacturer's instructions and was used to generate first strand cDNA utilising a random hexamer primer [p(dN)6] and MMLV reverse transcriptase. […] After each run, a dissociation curve was performed to ensure that no primer dimers contaminated the quantification and that the product had the expected melting temperature. All PCR reactions were normalized to the internal control and relative level of transcriptional difference calculated using the following equation: [1/(2A)]×100.
# [1] = system: α1 (I) collagen and TIMP-1 transcripts; experiment: Acute CCl4 liver injury, liver transcripts by qPCR; type: in vivo, C57Bl6 mice; details: mice, 15 mg/m^2 IP 2 hours prior to single dose of CCl4, sacrificed 24 h after
# Method: FIG. 5—A.) and B.) 5×10^6 rat MFBs were electroporated as outlined “Materials and methods”. 2 μgs control siRNA or siRNA designed to target rat EZH2 was used per transfection. Total RNA was prepared from control or rat EZH2 siRNA transfected cells 48 h after the electroporation. First strand cDNA was synthesised which was then utilised as a template in qPCR using primers for specific amplification of EZH2 (in A.) and PPARγ (in B.). C.) Fully differentiated MFBs were treated with 1 μM 3-deazaneplanocin A or vehicle for 72 h at which time total RNA was prepared from control or drug treated cells. First strand cDNA was synthesised which was then utilised as a template in qPCR using primers for specific amplification of PPARγ. D.) Freshly isolated rat HSC were plated out onto plastic in two separate dishes and one dish treated with 1 μM 3-deazaneplanocin A at 12 h following the HSC isolation. […] Results are expressed as percent control of 3-deazaneplanocin A and olive oil vehicle injected mice (data not included in the graph).
# 3 deazaneplanocin A was given to two groups of four C57Bl6 mice (15 mg/m^2 which was calculated to be 0.428 μg of drug per g body weight of a mouse) was given IP 2 hours prior to a single dose of CCl4 (CCl4/olive oil in a 1:1 [vol/vol] ratio at 1 μl per g body weight). […]
# EZH2 = details: Tan J et al, 2007; cited from earlier work
# collagen I = experiment: Further testing: fibrogenic activity measured by production of collagen I; type: cell-based; details: 1 μM, one dose at start of culturing, 7 days (FIG. 11)
# From the text: RNA was also isolated on days 4 and 7.
SMILES,induction of fibrogenic gene al (I) collagen (hepatic stellate cells),induction of fibrogenic gene tissue inhibitor of metalloproteinase-1 (TIMP-1) (hepatic stellate cells),induction of transcripts for TIMP-1 in injured liver [1],induction of transcripts for α1 (I) collagen in injured liver [1],effect on cellular EZH2 (EZH2),inhibition of collagen I production at 7 days (collagen I)
"Nc1nccc2c1ncn2[C@@H]1C=C(CO)[C@@H](O)[C@H]1O [Compound 3, 3-deazaneplanocin A]",suppressed the induction,suppressed the induction,suppressed the induction,suppressed the induction,depletes cells of EZH2,–
Nc1nc(Cl)cc2c1ncn2C1COC(CO)O1 (stereo not drawn) [Compound 8],–,–,–,–,–,significant inhibition

# Reference: patent publication US8642602B2, “Method of inhibiting fibrogenesis and treating fibrotic disease” (University of Georgia Research Foundation, Inc., priority 2009, dated 2014)
